The source of these data is ChEMBL document CHEMBL1201862, “PubChem BioAssay data set” (2004).

One test has as its target Major prion protein (Homo sapiens, UniProt P04156). It is filed as functional, cell-based.
Test [1] in a line: cells.
In another test the target is T1, Protein RecA (Mycobacterium tuberculosis, UniProt P9WHJ3).
T1 sequence (P9WHJ3 whole entry): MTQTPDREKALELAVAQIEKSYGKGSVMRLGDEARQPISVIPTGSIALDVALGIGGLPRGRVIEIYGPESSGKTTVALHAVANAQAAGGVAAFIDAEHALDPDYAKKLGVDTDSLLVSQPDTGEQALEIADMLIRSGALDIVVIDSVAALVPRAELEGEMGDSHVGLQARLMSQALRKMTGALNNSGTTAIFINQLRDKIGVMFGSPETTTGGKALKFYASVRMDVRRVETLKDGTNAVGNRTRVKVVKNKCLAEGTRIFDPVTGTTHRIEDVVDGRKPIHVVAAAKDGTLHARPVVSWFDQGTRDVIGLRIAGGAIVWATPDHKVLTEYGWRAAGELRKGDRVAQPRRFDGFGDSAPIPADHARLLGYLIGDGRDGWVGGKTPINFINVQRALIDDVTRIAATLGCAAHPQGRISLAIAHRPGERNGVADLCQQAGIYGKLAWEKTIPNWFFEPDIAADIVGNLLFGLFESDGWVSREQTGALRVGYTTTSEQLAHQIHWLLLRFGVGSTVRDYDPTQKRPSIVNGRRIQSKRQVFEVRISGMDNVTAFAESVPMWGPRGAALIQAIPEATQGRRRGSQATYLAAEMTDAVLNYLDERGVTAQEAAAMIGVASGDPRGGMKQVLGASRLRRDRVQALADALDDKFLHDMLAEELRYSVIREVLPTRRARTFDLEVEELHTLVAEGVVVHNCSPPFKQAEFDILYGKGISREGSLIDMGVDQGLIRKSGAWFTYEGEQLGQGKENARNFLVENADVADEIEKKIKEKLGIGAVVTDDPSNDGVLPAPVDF
Nature of the test: Fluorescence Cell-Free Homogeneous Dose Retest to Identify Inhibitors of RecA-Intein Splicing Activity. [Related pubchem assays (depositor defined):AID2097, AID2223, AID489010, AID492950]. Format: functional.

Test [2] deals with T2, Histone-lysine N-methyltransferase NSD2 (Homo sapiens, UniProt O96028).
T2 sequence (O96028 whole entry): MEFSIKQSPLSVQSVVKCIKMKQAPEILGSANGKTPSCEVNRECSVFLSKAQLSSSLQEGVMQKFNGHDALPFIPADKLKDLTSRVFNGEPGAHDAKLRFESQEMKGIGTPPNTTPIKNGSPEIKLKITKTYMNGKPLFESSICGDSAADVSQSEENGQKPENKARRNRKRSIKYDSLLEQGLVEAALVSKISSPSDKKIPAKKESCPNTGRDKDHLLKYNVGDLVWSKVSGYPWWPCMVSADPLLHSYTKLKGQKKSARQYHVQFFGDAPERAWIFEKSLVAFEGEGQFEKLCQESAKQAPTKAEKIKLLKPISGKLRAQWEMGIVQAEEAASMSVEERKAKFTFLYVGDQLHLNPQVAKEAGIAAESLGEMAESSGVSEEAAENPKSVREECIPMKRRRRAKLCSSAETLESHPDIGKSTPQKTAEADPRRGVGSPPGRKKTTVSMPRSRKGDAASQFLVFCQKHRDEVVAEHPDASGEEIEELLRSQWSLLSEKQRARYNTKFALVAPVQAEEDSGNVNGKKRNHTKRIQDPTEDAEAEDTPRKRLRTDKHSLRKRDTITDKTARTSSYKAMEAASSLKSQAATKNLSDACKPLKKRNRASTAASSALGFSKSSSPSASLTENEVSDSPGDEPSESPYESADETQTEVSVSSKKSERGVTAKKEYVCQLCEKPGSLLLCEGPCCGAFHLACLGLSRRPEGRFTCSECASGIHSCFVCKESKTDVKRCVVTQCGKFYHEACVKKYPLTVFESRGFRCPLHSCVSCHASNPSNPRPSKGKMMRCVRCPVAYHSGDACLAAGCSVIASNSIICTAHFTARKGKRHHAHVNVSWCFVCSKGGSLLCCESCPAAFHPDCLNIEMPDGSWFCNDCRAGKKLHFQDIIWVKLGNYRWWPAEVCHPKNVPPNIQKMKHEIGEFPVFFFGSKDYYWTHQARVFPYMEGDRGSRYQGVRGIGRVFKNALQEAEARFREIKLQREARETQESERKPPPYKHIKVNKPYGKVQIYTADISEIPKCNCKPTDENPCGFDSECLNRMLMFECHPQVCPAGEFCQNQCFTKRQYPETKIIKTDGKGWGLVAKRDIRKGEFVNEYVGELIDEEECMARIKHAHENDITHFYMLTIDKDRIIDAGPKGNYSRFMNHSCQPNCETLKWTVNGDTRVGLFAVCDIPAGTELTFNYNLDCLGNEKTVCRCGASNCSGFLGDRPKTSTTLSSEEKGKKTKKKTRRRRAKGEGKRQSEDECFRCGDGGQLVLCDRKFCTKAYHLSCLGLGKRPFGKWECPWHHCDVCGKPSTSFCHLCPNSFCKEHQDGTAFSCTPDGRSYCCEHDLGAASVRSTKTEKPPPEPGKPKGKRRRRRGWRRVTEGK
It is filed as biochemical.

For test [3], the target named is T3, Heat shock factor protein 1 (Mus musculus, UniProt P38532).
T3 sequence (P38532 whole entry): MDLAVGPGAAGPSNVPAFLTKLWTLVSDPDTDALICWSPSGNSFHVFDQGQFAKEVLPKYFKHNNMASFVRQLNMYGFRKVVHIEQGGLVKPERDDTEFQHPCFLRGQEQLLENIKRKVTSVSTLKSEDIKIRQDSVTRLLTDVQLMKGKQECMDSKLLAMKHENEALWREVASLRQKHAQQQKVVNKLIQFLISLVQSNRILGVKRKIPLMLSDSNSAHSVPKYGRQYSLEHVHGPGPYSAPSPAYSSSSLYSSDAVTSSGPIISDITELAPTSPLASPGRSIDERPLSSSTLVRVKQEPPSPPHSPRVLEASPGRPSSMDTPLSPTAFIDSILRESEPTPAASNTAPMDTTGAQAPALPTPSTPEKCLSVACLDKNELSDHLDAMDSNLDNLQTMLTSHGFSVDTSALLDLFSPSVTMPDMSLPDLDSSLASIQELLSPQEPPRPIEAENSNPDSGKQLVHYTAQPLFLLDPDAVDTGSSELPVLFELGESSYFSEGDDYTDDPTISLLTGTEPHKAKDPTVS
Nature of the test: enhancement of HSF1-driven luciferase signal – cell-based, NIH3T3, luminescence, dose retest, confirmation (AID 435004).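 Further: stress induced by proteasome inhibitor MG132 added 30 min after compound; luciferase reporter driven by HSF1 response element in NIH3T3 cells; actives raise luminescence as potentiators of the MG132 stress response.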 It is filed as functional.

In test [4] the target is T4, Oxysterols receptor LXR-beta (Homo sapiens, UniProt P55055).
T4 sequence (P55055 whole entry): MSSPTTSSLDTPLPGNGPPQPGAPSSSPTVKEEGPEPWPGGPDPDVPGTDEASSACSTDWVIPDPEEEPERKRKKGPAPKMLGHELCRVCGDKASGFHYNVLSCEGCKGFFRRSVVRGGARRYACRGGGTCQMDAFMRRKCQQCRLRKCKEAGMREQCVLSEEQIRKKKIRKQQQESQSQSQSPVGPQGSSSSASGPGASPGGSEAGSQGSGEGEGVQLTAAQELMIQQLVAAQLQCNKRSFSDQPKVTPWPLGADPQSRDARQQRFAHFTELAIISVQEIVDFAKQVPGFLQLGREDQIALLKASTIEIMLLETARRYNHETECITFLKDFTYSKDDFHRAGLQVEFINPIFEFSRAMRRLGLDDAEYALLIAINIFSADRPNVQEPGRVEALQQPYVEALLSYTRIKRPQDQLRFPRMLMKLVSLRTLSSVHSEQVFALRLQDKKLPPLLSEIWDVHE
Format: functional, cell-based.

The target in a further test is T5, Aminopeptidase N (Plasmodium falciparum FcB1/Columbia, UniProt O96935).
T5 sequence (O96935 whole entry): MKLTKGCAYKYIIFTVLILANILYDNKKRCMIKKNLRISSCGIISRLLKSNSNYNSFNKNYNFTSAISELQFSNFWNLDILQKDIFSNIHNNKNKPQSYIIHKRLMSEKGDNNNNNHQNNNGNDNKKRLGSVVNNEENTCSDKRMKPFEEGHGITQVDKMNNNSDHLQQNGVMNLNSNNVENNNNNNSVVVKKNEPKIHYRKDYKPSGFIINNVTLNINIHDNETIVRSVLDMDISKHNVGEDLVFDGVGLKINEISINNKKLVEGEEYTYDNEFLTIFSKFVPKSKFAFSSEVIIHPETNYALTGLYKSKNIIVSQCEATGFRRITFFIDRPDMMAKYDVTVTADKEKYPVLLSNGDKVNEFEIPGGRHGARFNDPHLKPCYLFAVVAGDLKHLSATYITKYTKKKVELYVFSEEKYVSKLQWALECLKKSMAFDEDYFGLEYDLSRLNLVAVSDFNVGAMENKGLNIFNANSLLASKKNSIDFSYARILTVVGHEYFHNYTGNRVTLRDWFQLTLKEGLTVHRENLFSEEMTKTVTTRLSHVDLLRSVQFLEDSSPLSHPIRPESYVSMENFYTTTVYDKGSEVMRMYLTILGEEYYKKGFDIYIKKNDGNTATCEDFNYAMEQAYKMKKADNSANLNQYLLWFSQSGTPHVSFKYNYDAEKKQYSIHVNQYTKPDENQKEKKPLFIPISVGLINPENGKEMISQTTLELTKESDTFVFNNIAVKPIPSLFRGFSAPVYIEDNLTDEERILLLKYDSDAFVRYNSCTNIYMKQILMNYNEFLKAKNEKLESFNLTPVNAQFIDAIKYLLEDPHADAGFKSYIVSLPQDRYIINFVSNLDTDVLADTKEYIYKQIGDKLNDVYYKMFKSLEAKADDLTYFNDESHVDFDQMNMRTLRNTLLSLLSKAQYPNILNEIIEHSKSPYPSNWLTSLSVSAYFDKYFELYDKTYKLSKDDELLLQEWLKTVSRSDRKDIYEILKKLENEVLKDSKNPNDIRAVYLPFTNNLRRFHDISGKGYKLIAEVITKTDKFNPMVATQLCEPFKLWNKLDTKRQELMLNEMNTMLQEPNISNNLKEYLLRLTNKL
Nature of the test: malaria alanyl aminopeptidase activity blockers – biochemical, fluorogenic H-Leu-NHMec substrate, 1536-well (AID 1445). Set-up: species or system Plasmodium falciparum 3D7, 3D7.

For the next test, the target named is Large T antigen (Simian virus 40, UniProt P03070). Format: functional, Betapolyomavirus macacae.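 Further: Confirmatory-stage PubChem screen for compounds that inhibit SV40 T antigen.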
Large T antigen, sequence (P03070 whole entry): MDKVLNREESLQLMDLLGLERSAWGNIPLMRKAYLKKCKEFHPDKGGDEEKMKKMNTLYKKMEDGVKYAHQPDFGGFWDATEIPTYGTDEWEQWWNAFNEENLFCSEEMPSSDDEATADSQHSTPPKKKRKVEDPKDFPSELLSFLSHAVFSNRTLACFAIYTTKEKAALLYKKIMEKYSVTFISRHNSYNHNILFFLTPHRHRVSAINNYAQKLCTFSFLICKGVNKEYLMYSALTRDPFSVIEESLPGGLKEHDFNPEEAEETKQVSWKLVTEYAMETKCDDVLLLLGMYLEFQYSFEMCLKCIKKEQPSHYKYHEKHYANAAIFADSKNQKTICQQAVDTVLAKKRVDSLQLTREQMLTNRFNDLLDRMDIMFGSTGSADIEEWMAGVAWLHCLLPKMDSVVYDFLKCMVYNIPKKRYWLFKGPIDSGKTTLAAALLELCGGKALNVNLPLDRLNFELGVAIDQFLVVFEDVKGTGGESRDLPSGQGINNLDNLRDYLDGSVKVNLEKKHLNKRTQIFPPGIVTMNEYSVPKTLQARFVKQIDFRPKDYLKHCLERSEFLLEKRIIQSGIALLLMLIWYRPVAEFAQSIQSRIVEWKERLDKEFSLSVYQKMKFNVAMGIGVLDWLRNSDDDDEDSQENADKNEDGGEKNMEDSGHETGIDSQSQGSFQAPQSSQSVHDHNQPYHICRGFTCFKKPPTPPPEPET
Test [5] addresses Induced myeloid leukemia cell differentiation protein Mcl-1 (Homo sapiens, UniProt Q07820). Format: functional.
A further test concerns the target Paired box protein Pax-8 (Homo sapiens, UniProt Q06710). Description: PAX8 transcriptional activity inhibition in RMG-I – RMG-I cells, luciferase, cherry-pick, dose response (AID 687027).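 Further: luciferase reporter driven by Pax8 target thyroperoxidase promoter measured by SteadyGlo luminescence.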 Format: functional, cell-based.
Test [6] can be described thus: A2780 cell killing – plate reader, dry powder samples, cytotoxicity control, dose response (AID 743046). It is filed as functional, cell-based.
Test [7] is described as follows: OVCAR-3 cell viability loss – plate reader, dry powder samples, PAX8 inhibitor project, dose response (AID 743044). Format: functional, cell-based.
Test [8] is described as follows: OVCAR8 cell viability loss – plate reader, dry powder samples, PAX8 project, dose response (AID 743197). Format: functional, cell-based. Particulars: OVCAR-8.
Test [9] in a line: cytotoxicity in MITF-independent A375 cells – cell-based, CellTiter-Glo luminescence, dry powder, set 4, counter-screen for MITF inhibitor project, dose response (AID 624364).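 Further: A375 melanoma cells are MITF independent so this is a counter screen.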 Format: functional. The conditions noted are these: A-375.
Test [10] in a line: viability loss in MITF-independent A375 cells – cell-based, CellTiter-Glo luminescence, dry powder, set 2, counter-screen for MITF inhibitor project, dose response (AID 624489).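 Further: actives are compounds lowering A375 viability meaning general cytotoxicity.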 It is filed as functional. Particulars: A-375. (Cellular ATP, detected with luciferase, serves as a proxy for viable cell number.)
In test [11] the target is T4, Oxysterols receptor LXR-beta. It is filed as functional, cell-based. This is another data set of the same source.
Test [12] is described as follows: cells. The source holds these as a separate data set.

Active and inactive are the calls of the source.

Paired box protein Pax-8, sequence (Q06710 whole entry): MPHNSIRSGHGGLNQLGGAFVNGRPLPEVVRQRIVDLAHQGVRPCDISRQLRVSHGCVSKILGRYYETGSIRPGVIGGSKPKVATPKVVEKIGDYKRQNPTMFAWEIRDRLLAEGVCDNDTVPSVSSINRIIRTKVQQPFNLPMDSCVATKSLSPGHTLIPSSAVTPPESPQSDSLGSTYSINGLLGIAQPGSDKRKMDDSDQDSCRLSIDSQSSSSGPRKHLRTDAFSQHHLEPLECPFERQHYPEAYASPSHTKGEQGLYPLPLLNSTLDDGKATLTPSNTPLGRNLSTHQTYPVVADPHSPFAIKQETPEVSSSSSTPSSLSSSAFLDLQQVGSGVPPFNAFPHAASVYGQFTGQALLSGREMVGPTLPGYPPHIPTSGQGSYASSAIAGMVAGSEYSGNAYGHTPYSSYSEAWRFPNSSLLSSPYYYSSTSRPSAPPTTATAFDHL
Induced myeloid leukemia cell differentiation protein Mcl-1, sequence (Q07820 whole entry): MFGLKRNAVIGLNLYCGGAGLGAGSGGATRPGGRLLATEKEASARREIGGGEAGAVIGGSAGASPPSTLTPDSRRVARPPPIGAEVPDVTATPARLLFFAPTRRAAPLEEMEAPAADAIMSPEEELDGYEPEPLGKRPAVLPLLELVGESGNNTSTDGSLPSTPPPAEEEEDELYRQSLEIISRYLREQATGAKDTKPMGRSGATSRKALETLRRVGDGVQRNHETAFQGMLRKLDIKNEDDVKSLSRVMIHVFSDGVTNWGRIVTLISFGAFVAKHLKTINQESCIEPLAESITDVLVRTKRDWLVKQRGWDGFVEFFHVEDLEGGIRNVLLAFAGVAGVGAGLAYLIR

For orientation: IC50 means the concentration that inhibits the measured activity by half. For the compound `CC1(C)Cc2ccccc2-c2[nH]c(=S)[nH]c(=O)c21`, the IC50 on Major prion protein is 4.55 µM (active).
In the case of `CC1(C)Cc2ccccc2-c2nc(S)nc(O)c21`, the IC50 in “cells [1]” is > 138 µM (inactive).
Regarding `CCOC(=O)CSc1nc(-c2ccccc2)nc2ccccc12`, the IC50 at Major prion protein is 1.73 µM (active); in the test “cells [1]” it was > 138 µM (inactive).
One may read the EC50 as the concentration giving half of the maximal effect. For orientation: AC50 means the concentration giving half of the maximal activity seen. As for `OCCN=C(S)Nc1ccc2nsnc2c1`, the EC50 on Protein RecA is 26 µM (active). In addition, in test [2], the AC50 was 10.5 µM (active).
As for `Cc1ccc2oc(-c3cccc(N)c3)nc2c1`, the EC50 is > 260 µM (inconclusive) in test [3] and > 67.6 µM (inactive) in test [4].
As for `COc1cc(/C=C2/C(=N)N3N=C(c4ccc(C)cc4)SC3=NC2=O)ccc1O`, the IC50 on Aminopeptidase N is 66.1 µM (active); on Large T antigen, 7.62 µM (active); in test [5], 3.26 µM (active). In [4], the EC50 is > 67.5 µM (inactive).
In the case of `CCOC(=O)CSc1nc(COc2ccccc2)nc2ccccc12`, the IC50 at Major prion protein was 8.25 µM (active); in “cells [1]”, > 138 µM (inactive).
For the compound `Cc1ccccc1S(=O)(=O)N1CC[C@@H]2[C@H](CO)Nc3ccc(-c4cccc(F)c4)cc3[C@@H]21`, the AC50 on Paired box protein Pax-8 is 13.6 µM (active); in test [6] it was 0.711 µM (active); in test [7], 53.8 µM (active); in test [8], 46.7 µM (active).
For the compound `CCN(CC)CCCNC1=C(N(C)C(C)=O)C(=O)c2ccccc2C1=O`, the AC50 in [9] was 5.33 µM (active); in test [10] it was 2.91 µM (active).
With `Cc1ccc(/C=N/NC(=O)c2ccoc2C)s1`, the EC50 in test [4] is > 67.6 µM (inactive).
As for `Cc1ccc(-c2noc(-c3ccccc3Br)n2)cc1`, the EC50 (in [11]; in “cells [12]”) was > 67.5 µM (inactive) in each case.
Take `CC(=O)NC1=C(c2ccc(Oc3ccccc3)cc2)C(=O)c2ccccc2C1=O`: the AC50 was 59 µM (active) in test [9] and 31.2 µM (active) in test [10].
